# Results taken from ChEMBL document CHEMBL1201862, “PubChem BioAssay data set” (2004).
# Activity calls are given as the source filed them.
# How the values were obtained:
# [1] = Luminescence Cell-Based Dose Confirmation HTS to Identify Inhibitors of Platelet Dense Granule Release. [Related pubchem assays: 1663 (Primary HTS), 1678 (Summary of Project)]; type: functional
# [2] = target: Luciferin 4-monooxygenase (Photinus pyralis, UniProt P08659); experiment: inhibition of purified Photinus pyralis luciferase – biochemical, luminescence, dose response (AID 1891)
# Luciferin 4-monooxygenase, sequence (P08659 whole entry): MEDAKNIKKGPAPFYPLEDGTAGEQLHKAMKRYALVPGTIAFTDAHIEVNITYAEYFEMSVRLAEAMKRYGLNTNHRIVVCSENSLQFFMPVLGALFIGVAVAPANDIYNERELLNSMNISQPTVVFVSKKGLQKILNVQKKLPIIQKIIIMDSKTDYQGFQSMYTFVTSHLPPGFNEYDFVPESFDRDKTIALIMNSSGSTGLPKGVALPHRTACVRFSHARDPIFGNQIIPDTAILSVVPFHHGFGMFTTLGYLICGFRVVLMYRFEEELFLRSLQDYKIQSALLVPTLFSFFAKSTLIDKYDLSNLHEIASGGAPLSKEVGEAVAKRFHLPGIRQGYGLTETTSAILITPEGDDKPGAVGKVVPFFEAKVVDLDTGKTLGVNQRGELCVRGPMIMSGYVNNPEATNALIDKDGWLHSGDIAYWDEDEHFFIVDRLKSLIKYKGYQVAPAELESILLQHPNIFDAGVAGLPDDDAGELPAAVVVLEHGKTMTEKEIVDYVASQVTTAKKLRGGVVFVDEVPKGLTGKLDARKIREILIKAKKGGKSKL
# [3] = target: FAD-linked sulfhydryl oxidase ALR (Homo sapiens, UniProt P55789); experiment: ALR-catalysed DTT oxidation blockers – biochemical, H2O2 detection, luminescence, cherry-pick, dose response (AID 493248)
# FAD-linked sulfhydryl oxidase ALR, sequence (P55789 whole entry): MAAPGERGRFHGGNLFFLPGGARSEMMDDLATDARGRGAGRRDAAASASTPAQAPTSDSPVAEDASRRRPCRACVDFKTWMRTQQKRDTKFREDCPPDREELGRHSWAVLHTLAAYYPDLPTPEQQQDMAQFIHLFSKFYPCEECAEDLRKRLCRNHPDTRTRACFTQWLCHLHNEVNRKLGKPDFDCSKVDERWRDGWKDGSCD
# [4] = cells; type: functional, cell-based
# [5] = cells; type: functional, cell-based; remark: listed apart in the source
# [6] = Trypanosoma cruzi growth suppression in host cells – NIH3T3 host cells, beta-gal luminescence, confirmation (AID 2044); type: functional, cell-based;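 further: intracellular parasites grown in NIH/3T3 mouse fibroblasts as host cells; luminescent beta-galactosidase reporter signal from transgenic T. cruzi replicating inside host cells; inhibitors lower the luminescence signal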
# [7] = viability of HCT116 lacking mutant beta-catenin – cell-based, human colon tumor, dose response (AID 1045); type: functional;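 further: HCT116 colon tumor cells with beta catenin knocked out; cells exposed to compound for 60 hours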
# [8] = NIH3T3 cell viability loss – ATP luminescence, mouse fibroblasts, counter-screen, dose response (AID 2010); type: functional, cell-based;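 further: cells exposed to compound for about 90 hours before reading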
# [9] = viability of PTEN-deleted HCT116 cells – cell-based, HCT116 PTEN knockout, dose response (AID 1047); type: functional;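 further: HCT116 colon tumor cells with PTEN knocked out; cells exposed to compound for 60 hours before readout; potency for loss of cell viability measured by luminescence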
# [10] = microbe, parasite or virus in culture; type: functional; details: Mycobacterium tuberculosis
# [11] = target: T1, Heat shock factor protein 1 (Mus musculus, UniProt P38532); experiment: enhancement of HSF1-driven luciferase signal – cell-based, NIH3T3, luminescence, dose retest, confirmation (AID 435004); type: functional;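 further: stress induced by proteasome inhibitor MG132 added 30 min after compound; luciferase reporter driven by HSF1 response element in NIH3T3 cells; actives raise luminescence as potentiators of the MG132 stress response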
# T1 sequence (P38532 whole entry): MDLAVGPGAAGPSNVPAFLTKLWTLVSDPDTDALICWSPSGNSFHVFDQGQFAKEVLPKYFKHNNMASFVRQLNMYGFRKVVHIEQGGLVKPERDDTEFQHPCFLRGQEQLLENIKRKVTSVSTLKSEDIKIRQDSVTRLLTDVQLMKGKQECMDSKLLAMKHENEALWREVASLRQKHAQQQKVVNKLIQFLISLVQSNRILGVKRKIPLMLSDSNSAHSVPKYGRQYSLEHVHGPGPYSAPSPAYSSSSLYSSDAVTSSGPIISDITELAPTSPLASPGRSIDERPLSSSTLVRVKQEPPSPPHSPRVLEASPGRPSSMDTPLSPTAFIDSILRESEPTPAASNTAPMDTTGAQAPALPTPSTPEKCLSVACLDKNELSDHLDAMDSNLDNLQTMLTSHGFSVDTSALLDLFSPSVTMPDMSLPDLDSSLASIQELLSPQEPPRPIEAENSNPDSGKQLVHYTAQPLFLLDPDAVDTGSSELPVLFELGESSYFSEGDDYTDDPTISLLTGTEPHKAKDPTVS
# [12] = target: Paired box protein Pax-8 (Homo sapiens, UniProt Q06710); experiment: PAX8 transcriptional activity inhibition in RMG-I – RMG-I cells, luciferase, cherry-pick, dose response (AID 687027); type: functional, cell-based;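 further: luciferase reporter driven by Pax8 target thyroperoxidase promoter measured by SteadyGlo luminescence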
# Paired box protein Pax-8, sequence (Q06710 whole entry): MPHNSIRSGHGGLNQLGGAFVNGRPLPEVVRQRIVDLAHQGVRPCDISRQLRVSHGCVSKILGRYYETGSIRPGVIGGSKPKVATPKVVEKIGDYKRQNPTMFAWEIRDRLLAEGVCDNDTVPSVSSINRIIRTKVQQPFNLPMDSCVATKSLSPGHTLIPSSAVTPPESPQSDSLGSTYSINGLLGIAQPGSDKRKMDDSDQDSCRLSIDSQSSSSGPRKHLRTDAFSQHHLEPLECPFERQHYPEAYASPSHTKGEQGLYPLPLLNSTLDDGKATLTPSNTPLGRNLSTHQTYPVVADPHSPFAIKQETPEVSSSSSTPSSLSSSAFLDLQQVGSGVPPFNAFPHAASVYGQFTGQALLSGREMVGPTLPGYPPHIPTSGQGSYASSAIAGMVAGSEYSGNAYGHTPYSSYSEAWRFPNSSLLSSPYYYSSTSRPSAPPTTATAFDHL
# [13] = test system: Streptococcus; experiment: GAS UMAA2166 growth inhibition – luminescence, BacTiterGlo, counter-screen for streptokinase expression inhibitor project, dose response (AID 1915); type: functional, organism-based;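 further: potency for reduction of bacterial viability or growth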
# [14] = luciferase reporter signal suppression in cells – H4 neuroglioma cells, luminescence, dose response (AID 1990); type: functional, cell-based
# [15] = target: T2, Streptokinase A (Streptococcus pyogenes serotype M1, UniProt P10520); experiment: viability-normalized secreted streptokinase activity reduction – plasminogen activation absorbance, OD405, dose response (AID 1914); type: functional, Streptococcus pyogenes M1 GAS;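 further: secreted streptokinase activity via plasminogen activation per viability signal from cell pellet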
# T2 sequence (P10520 whole entry): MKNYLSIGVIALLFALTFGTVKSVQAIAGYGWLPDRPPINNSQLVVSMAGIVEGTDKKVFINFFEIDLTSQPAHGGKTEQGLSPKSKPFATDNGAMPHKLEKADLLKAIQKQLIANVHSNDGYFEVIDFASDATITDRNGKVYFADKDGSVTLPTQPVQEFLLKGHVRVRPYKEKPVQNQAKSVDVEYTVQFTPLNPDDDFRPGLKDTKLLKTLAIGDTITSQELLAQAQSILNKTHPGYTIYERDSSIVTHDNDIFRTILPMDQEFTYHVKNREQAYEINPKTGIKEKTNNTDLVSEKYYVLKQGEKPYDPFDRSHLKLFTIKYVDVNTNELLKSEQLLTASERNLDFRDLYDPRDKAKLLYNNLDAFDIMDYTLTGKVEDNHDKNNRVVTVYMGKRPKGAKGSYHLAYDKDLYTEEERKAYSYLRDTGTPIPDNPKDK
# [16] = alpha-synuclein stem-loop luciferase translation blockers – H4 neuroglioma cells, luminescence, confirmation (AID 1988); type: functional, cell-based
# [17] = test system: Streptococcus sp. 'group A'; experiment: Streptococcus pyogenes SK(-)GAS viability under kanamycin – luminescence, BacTiterGlo, confirmation, counter-screen for streptokinase expression inhibitor project, dose response (AID 1900); type: functional, organism-based
# [18] = Luminescence Cell-Based Dose Response HTS to Identify Inhibitors of 5'UTR Stem-Loop Driven Prion Protein mRNA Translation in H4 Neuroglioblastoma Cells. [Related pubchem assays: 1827 (Project Summary), 1813 (Primary HTS)]; type: functional
# [19] = cells; type: functional
# [20] = blockers of HIV-1 envelope-mediated cell-cell fusion – cherry-pick, dose response (AID 652057); type: functional, cell-based
# [21] = blockers of HIV-1 ZM109 envelope-driven cell-cell fusion – HeLa effector, CEM target cells, luciferase, cherry-pick, dose response (AID 652058); type: functional, cell-based;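 further: luciferase signal from HIV-1 Env mediated cell-cell fusion of effector and target cells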
# [22] = reduction of Shn3 3'UTR-driven luciferase in osteoblasts – cell-based, Clone20 osteoblasts, firefly luciferase, cherry-picked, dose response (AID 624132); type: functional;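 further: firefly luciferase luminescence from reporter carrying the Shn3 3'UTR in osteoblasts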
# [23] = HIV-1 AD8 envelope cell-cell fusion blockers – cherry-pick, dose response (AID 652062); type: functional, cell-based;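 further: luciferase signal from cell-cell fusion driven by HIV-1 clade B AD8 Env; potency is for inhibitors of fusion seen as a drop in luminescence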
# [24] = loss of viability in HepG2 cells – cell-based, CellTiter-Glo, cherry-picked, cytotoxicity control for Shn3 inhibitor project, dose response (AID 624134); type: functional
# [25] = target: Cytochrome P450 2D6 (Homo sapiens, UniProt P10635);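 further: CYP2D6 member of a cytochrome P450 panel assay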
# Cytochrome P450 2D6, sequence (P10635 whole entry): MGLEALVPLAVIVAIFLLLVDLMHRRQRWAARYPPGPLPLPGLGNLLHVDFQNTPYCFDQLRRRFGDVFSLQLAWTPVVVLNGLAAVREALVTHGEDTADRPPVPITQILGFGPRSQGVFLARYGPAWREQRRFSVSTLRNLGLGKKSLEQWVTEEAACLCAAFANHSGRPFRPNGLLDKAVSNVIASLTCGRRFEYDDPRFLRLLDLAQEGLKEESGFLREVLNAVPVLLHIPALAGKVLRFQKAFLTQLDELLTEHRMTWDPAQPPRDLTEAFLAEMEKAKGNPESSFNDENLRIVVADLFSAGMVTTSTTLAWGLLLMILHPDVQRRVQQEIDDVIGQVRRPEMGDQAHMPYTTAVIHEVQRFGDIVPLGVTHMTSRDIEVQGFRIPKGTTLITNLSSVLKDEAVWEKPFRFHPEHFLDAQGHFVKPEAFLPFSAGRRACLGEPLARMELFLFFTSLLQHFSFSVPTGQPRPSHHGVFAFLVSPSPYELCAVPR
# [26] = target: Cytochrome P450 2C9 (Homo sapiens, UniProt P11712)
# Cytochrome P450 2C9, sequence (P11712 whole entry): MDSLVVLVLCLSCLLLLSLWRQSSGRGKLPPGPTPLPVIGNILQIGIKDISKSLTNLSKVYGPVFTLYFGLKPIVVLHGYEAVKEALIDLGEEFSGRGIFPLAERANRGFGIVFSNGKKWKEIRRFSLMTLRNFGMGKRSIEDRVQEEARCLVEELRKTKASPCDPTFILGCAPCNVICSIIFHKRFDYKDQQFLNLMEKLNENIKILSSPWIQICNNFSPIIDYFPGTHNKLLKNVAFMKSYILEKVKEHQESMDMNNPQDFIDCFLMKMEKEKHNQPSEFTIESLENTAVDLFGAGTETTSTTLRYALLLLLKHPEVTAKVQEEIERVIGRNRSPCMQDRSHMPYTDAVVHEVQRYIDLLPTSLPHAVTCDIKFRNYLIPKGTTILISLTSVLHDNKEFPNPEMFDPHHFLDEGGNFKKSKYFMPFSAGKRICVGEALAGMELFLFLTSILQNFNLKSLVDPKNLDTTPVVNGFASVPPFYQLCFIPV
# [27] = Luminescence Cell-Based Dose Retest to Confirm Inhibitors of Cancer Stem Cells. [Related pubchem assays (depositor defined):AID2717, AID2721]; type: functional; details: Homo sapiens
structure (smiles),measurement,setting,value
CCCOC(=O)c1ccc(NC(=O)c2ccoc2C)cc1,EC50,[1],5.2 µM (active)
same,EC50,[2],4.18 µM (active)
O=C(CC(Nc1ccccc1Cl)C(=O)O)c1ccccc1 (centres undefined),AC50,[3],13 µM (active)
FC(F)(F)c1cnc(N2CCN(C(S)=NCc3ccccc3)CC2)c(Cl)c1,EC50,[4],> 350 µM (not active)
same,EC50,[5],> 350 µM (not active)
Cc1ccc(S(=O)(=O)c2nc(-c3ccccc3Cl)oc2N(C)C)cc1,EC50,[4],> 350 µM (not active)
same,EC50,[5],> 350 µM (not active)
Cc1c(NC(=O)CSc2cccc3cccnc23)c(=O)n(-c2ccccc2)n1C,EC50,[6],1.31 µM (active)
same,EC50,[7],17 µM (active)
same,EC50,[8],> 30 µM (not active)
same,EC50,[9],17.4 µM (active)
COc1c(/C=N/NC(=O)c2ccccc2O)c(CCN(C)C(C)=O)cc2c1OCO2,EC50,[1],> 112 µM (not active)
same,EC50,[2],> 112 µM (not active)
COc1ccc(NC(=O)CCC(=O)N(Cc2ccc(OC)c(OC)c2)c2nccs2)cc1,EC50,[4],> 350 µM (not active)
same,EC50,[5],> 350 µM (not active)
Cc1cc(C)cc(-n2c(N)c(C(=O)Nc3c(C)n(C)n(-c4ccccc4)c3=O)c3nc4ccccc4nc32)c1,EC50,[6],1.21 µM (active)
same,EC50,[7],13 µM (active)
same,EC50,[8],> 60 µM (not active)
same,EC50,[9],11.8 µM (active)
Nc1ccc(-c2cc(N)n(-c3ccccc3)n2)cc1,AC50,[3],0.8 µM (active)
O=C(/C=C/c1cn(-c2ccccc2)nc1-c1cccnc1)c1ccco1,CC50,[10],11.5 µM (active)
O=C(O)CCCCCCC1C(=O)NC(=O)N1CCC(O)C1CCCCC1 (centres undefined),EC50,[1],< 0.088 µM (active)
same,EC50,[2],> 112 µM (not active)
CN(C)CCNC(=O)/C(=C/c1ccc(-c2cccc(Cl)c2)o1)NC(=O)c1ccccc1,EC50,[11],> 260 µM (inactive)
same,EC50,[7],10.3 µM (active)
same,EC50,[9],10.3 µM (active)
CN(Cc1ccccc1)N=Nc1[nH]cnc1C(N)=O,AC50,[12],21.2 µM (active)
CC1(C)Cc2c(sc(NC(=O)c3ccc(C(=O)c4ccccc4)cc3)c2C(N)=O)C(C)(C)N1,EC50,[13],> 150 µM (not active)
same,EC50,[14],10.3 µM (active)
same,EC50,[15],> 150 µM (not active)
same,EC50,[16],11.6 µM (active)
same,CC50,[10],20.7 µM (active)
same,EC50,[17],26.3 µM (active)
same,EC50,[18],16.9 µM (active)
COc1ccc(-c2nn(-c3ccccc3)cc2C(=O)O)cc1OC,EC50,[1],> 112 µM (not active)
same,EC50,[2],> 112 µM (not active)
CNc1nnc(CSc2nc3ccccc3s2)s1,AC50,[3],0.714 µM (active)
CC(=O)c1ccc2c(c1)C1C(Cl)C(Sc3ccccc3[N+](=O)[O-])CC1C(c1ccccc1)N2 (centres undefined),CC50,[10],> 40 µM (active)
Cc1cnc(NC(=O)NCC2CCCC(CNC(=O)Nc3ncc(C)s3)C2)s1 (centres undefined),CC50,[10],> 40 µM (active)
CCOc1ccc(-c2cc(CCCC(=O)NCCC(C)C)no2)cc1,IC50,[19],10.6 µM (active)
same,CC50,[10],> 40 µM (active)
C[C@H](CO)N1C[C@H](C)[C@H](CN(C)S(=O)(=O)c2ccccc2)Oc2ccc(NS(=O)(=O)c3ccc(F)cc3)cc2CC1=O,AC50,[20],15.1 µM (active)
same,AC50,[21],28.8 µM (active)
CCNC(=O)COc1cccc(C(=O)NCc2ccccc2)c1,EC50,[4],> 350 µM (not active)
same,EC50,[5],> 350 µM (not active)
O=C(NCCCN1CCOCC1)c1cc(-c2ccccc2)on1,EC50,[4],11.5 µM (active)
same,EC50,[5],> 350 µM (not active)
COc1ccc2c(c1)N(C(=O)CSc1n[nH]c(C)n1)C(C)(C)C=C2C,EC50,[1],> 112 µM (not active)
same,EC50,[2],> 112 µM (not active)
Cc1ccc(S(=O)(=O)N2CCN(CC(=O)N/N=C\C(Cl)=C\c3ccccc3)CC2)cc1,EC50,[7],39.3 µM (active)
same,EC50,[9],44.2 µM (active)
O=C(Cn1cccc1)N1CCN(c2ccc(F)cc2)CC1,EC50,[1],> 112 µM (not active)
same,EC50,[2],> 112 µM (not active)
Cc1ccc(NC(=O)N2CCC(c3ccccc3)C2)cc1C (centres undefined),EC50,[1],> 112 µM (not active)
same,EC50,[2],> 112 µM (not active)
CCC12CN(S(=O)(=O)c3ccc(C)cc3)CC(CC)(CN(S(=O)(=O)c3ccc(C)cc3)C1)C2=O,AC50,[22],3.48 µM (active)
same,AC50,[20],2.44 µM (active)
same,AC50,[23],22 µM (active)
same,AC50,[24],66.7 µM (active)
same,AC50,[21],42.7 µM (active)
O=C1/C(=C\c2ccc([N+](=O)[O-])cc2)CCc2ccccc21,EC50,[1],2.53 µM (active)
same,EC50,[2],8.13 µM (active)
Cc1ccc(C(=O)N2CCN(c3ccccc3O)CC2)cc1S(=O)(=O)N1CCCCC1,AC50,[3],9.33 µM (active)
CC1CC/C(=C\c2ccc3c(c2)OCO3)C(=O)/C1=C/c1ccc2c(c1)OCO2 (centres undefined),AC50,[25],2.51 µM (inconclusive)
same,EC50,[7],14.3 µM (active)
same,AC50,[26],6.31 µM (inconclusive)
same,AC50,[27],2.92 µM (active)
same,EC50,[9],13.8 µM (active)
Cc1ccc(S(=O)(=O)N(C)C[C@@H]2Oc3ccc(NS(=O)(=O)c4ccccc4)cc3CC(=O)N([C@H](C)CO)C[C@@H]2C)cc1,AC50,[20],2.75 µM (active)
same,AC50,[23],26.6 µM (active)
same,AC50,[21],8.38 µM (active)
COc1ccc(/C=C2\SC(=O)N(CCC(=O)N(C)C3CCS(=O)(=O)C3)C2=O)cc1 (centres undefined),EC50,[4],> 350 µM (not active)
same,EC50,[5],> 350 µM (not active)
O=[N+]([O-])c1cc2c(ccc3occc32)o1,AC50,[12],2.49 µM (active)
CC(C)OCCCNC(=O)c1c(N)n(Cc2cccs2)c2nc3ccccc3nc12,EC50,[7],216 µM (active)
same,AC50,[27],3.51 µM (active)
same,EC50,[9],84.7 µM (active)
CCOC(=O)C1CCCN(C(=O)c2ccc3nc(-c4ccccc4)c(-c4ccccc4)nc3c2)C1 (centres undefined),EC50,[4],> 350 µM (not active)
same,EC50,[5],> 350 µM (not active)
